Earlier results, collected in paper PMC3604136 (Nature chemical biology, 2013).

System: HIF-1 and HIF-2

acriflavine
HIF isoform inhibition: inhibits both HIF-1 and HIF-2
